According to the NIST ThermoML archive (doi:10.1021/je060026r):
Numbers after ± are expanded uncertainties.

Test: excess molar enthalpy (molar enthalpy of mixing); xn = mol fraction of the nth substance listed
Conditions: 313.15 K, 101 kPa, Liquid, Flow calorimetry

CCCCOCCO [2-butoxyethan-1-ol] + c1ccccc1
Conditions | excess molar enthalpy [kJ/mol]
x2 = 0.0343 | 0.256 ± 0.0057
x2 = 0.0698 | 0.42 ± 0.0092
x2 = 0.1064 | 0.528 ± 0.011
x2 = 0.1444 | 0.608 ± 0.013
x2 = 0.1836 | 0.652 ± 0.014
x2 = 0.2243 | 0.677 ± 0.015
x2 = 0.2665 | 0.69 ± 0.015
x2 = 0.3103 | 0.682 ± 0.015
x2 = 0.3557 | 0.666 ± 0.014
x2 = 0.4029 | 0.639 ± 0.014
x2 = 0.452 | 0.602 ± 0.013
x2 = 0.503 | 0.556 ± 0.012
x2 = 0.5562 | 0.499 ± 0.011
x2 = 0.6116 | 0.441 ± 0.0096
x2 = 0.6694 | 0.373 ± 0.0082
x2 = 0.7297 | 0.304 ± 0.0067
x2 = 0.7927 | 0.228 ± 0.0051
x2 = 0.8586 | 0.15 ± 0.0044
x2 = 0.9277 | 0.0731 ± 0.0042

CCCCOCCO [2-butoxyethan-1-ol] + C1CCCCC1
Conditions | excess molar enthalpy [kJ/mol]
x2 = 0.0414 | 0.417 ± 0.0091
x2 = 0.0836 | 0.625 ± 0.013
x2 = 0.1265 | 0.766 ± 0.017
x2 = 0.1702 | 0.866 ± 0.019
x2 = 0.2148 | 0.93 ± 0.02
x2 = 0.2602 | 0.976 ± 0.021
x2 = 0.3065 | 1 ± 0.022
x2 = 0.3536 | 1.02 ± 0.022
x2 = 0.4017 | 1.01 ± 0.022
x2 = 0.4507 | 0.997 ± 0.021
x2 = 0.5007 | 0.959 ± 0.021
x2 = 0.5518 | 0.915 ± 0.02
x2 = 0.6038 | 0.853 ± 0.018
x2 = 0.6569 | 0.78 ± 0.017
x2 = 0.7111 | 0.689 ± 0.015
x2 = 0.7665 | 0.582 ± 0.013
x2 = 0.823 | 0.46 ± 0.01
x2 = 0.8807 | 0.322 ± 0.0071
x2 = 0.9397 | 0.168 ± 0.0044

COCC(C)O (stereo unspecified) [1-methoxy-2-propanol] + C1CCCCC1
Conditions | excess molar enthalpy [kJ/mol]
x1 = 0.0547 | 0.585 ± 0.013
x1 = 0.109 | 0.892 ± 0.019
x1 = 0.1626 | 1.09 ± 0.023
x1 = 0.2158 | 1.24 ± 0.026
x1 = 0.2684 | 1.33 ± 0.029
x1 = 0.3205 | 1.4 ± 0.03
x1 = 0.3721 | 1.43 ± 0.03
x1 = 0.4232 | 1.44 ± 0.031
x1 = 0.4738 | 1.43 ± 0.03
x1 = 0.5239 | 1.4 ± 0.03
x1 = 0.5736 | 1.34 ± 0.029
x1 = 0.6227 | 1.28 ± 0.027
x1 = 0.6715 | 1.19 ± 0.025
x1 = 0.7197 | 1.08 ± 0.023
x1 = 0.7675 | 0.949 ± 0.02
x1 = 0.8149 | 0.8 ± 0.017
x1 = 0.8618 | 0.627 ± 0.014
x1 = 0.9083 | 0.439 ± 0.0096
x1 = 0.9544 | 0.227 ± 0.0051

COCC(C)O (stereo unspecified) [1-methoxy-2-propanol] + c1ccccc1
Conditions | excess molar enthalpy [kJ/mol]
x1 = 0.0455 | 0.321 ± 0.0071
x1 = 0.0914 | 0.519 ± 0.011
x1 = 0.1377 | 0.651 ± 0.014
x1 = 0.1845 | 0.736 ± 0.016
x1 = 0.2317 | 0.785 ± 0.017
x1 = 0.2794 | 0.811 ± 0.018
x1 = 0.3276 | 0.815 ± 0.018
x1 = 0.3763 | 0.808 ± 0.017
x1 = 0.4254 | 0.779 ± 0.017
x1 = 0.475 | 0.749 ± 0.016
x1 = 0.5251 | 0.699 ± 0.015
x1 = 0.5758 | 0.642 ± 0.014
x1 = 0.6269 | 0.583 ± 0.013
x1 = 0.6786 | 0.509 ± 0.011
x1 = 0.7308 | 0.433 ± 0.0094
x1 = 0.7835 | 0.351 ± 0.0077
x1 = 0.8368 | 0.269 ± 0.006
x1 = 0.8906 | 0.182 ± 0.0045
x1 = 0.945 | 0.0903 ± 0.0042
